# Columns and labels:
# [1] = test system: Candida albicans; test: Antibacterial activity against Candida albicans MTCC 227 by serial dilution method; type: functional
# [2] = test system: Candida albicans; test: Antifungal activity against Candida albicans ATCC 50193 incubated for 24 hrs by microdilution method; type: functional
# [3] = test system: Aspergillus niger; test: Antibacterial activity against Aspergillus niger MTCC 8189 by serial dilution method; type: functional
# [4] = test system: Aspergillus niger; test: Antibacterial activity against Aspergillus niger ATCC 9029 incubated for 24 hrs by broth microdilution method; type: functional
# [5] = test system: Candida albicans; test: Antifungal activity against Candida albicans ATCC 2091 incubated for 24 hrs by broth microdilution method; type: functional
# [6] = test system: Candida albicans; test: Antifungal activity against Candida albicans MTCC 227 incubated for 2 days by microdilution method; type: functional; conditions: MTCC 227, 48 h, time 2 day
# [7] = test system: Aspergillus brasiliensis; test: Antifungal activity against Aspergillus brasiliensis MTCC 1344 incubated for 7 days by microdilution method; type: functional; conditions: MTCC 1344, 168 h, time 7 day
# [8] = test system: Aspergillus brasiliensis; test: Antifungal activity against Aspergillus brasiliensis ATCC 16404 incubated for 24 hrs by microdilution method; type: functional
# [9] = test system: Staphylococcus aureus; test: Antibacterial activity against Staphylococcus aureus CIP 6525 after overnight incubation by CLSI M7-A9 based method; type: functional
# [10] = test system: Enterococcus faecalis; test: Antibacterial activity against Enterococcus faecalis ATCC 29212 after overnight incubation by CLSI M7-A9 based method; type: functional
# [11] = test system: Escherichia coli; test: Antibacterial activity against Escherichia coli ATCC 25922 after overnight incubation by CLSI M7-A9 based method; type: functional
# [12] = test system: Escherichia coli; test: Antibacterial activity against Escherichia coli JM109 after overnight incubation by CLSI M7-A9 based method; type: functional
# [13] = test system: Staphylococcus aureus; test: Antibacterial activity against inducibly-resistant Staphylococcus aureus; type: functional
# [14] = test system: Staphylococcus aureus; test: Antibacterial activity against constitutively-resistant Staphylococcus aureus; type: functional
# [15] = test system: Staphylococcus aureus; test: Antibacterial activity against methicillin-resistant Staphylococcus aureus; type: functional
# [16] = test system: Escherichia coli; test: Antibacterial activity against Escherichia coli NCIM 2256 incubated for 24 hrs; type: functional
# [17] = test system: Pseudomonas fluorescens; test: Antibacterial activity against Pseudomonas fluorescens NCIM 2173 incubated for 24 hrs; type: functional
# [18] = test system: Proteus vulgaris; test: Antibacterial activity against Proteus vulgaris ATCC […] incubated for 24 hrs by broth dilution method; type: functional
# [19] = test system: Bacillus spizizenii; test: Antibacterial activity against Bacillus subtilis ATCC 6633 incubated for 24 hrs by broth dilution method; type: functional
# [20] = test system: Sphingomonas paucimobilis; test: Antibacterial activity against Flavobacterium devorans ATCC 10829 incubated for 24 hrs; type: functional
# [21] = test system: Escherichia coli; test: Antibacterial activity against Escherichia coli ATCC 25922 incubated for 24 hrs by broth dilution method; type: functional
# [22] = test system: Bacillus cereus; test: Antibacterial activity against Bacillus cereus ATCC 6630 incubated for 24 hrs; type: functional
# [23] = test system: Staphylococcus aureus; test: Antibacterial activity against Staphylococcus aureus ATCC 9144 incubated for 24 hrs by broth dilution method; type: functional
# [24] = test system: Micrococcus luteus; test: Antibacterial activity against Micrococcus Luteus ATCC 398 incubated for 24 hrs; type: functional
# [25] = test system: Staphylococcus aureus; test: Antibacterial activity against Staphylococcus aureus ATCC 29737 incubated for 24 hrs; type: functional
# [26] = test system: Enterococcus faecalis; test: Antibacterial activity against Enterococcus faecalis MTCC 439 incubated overnight by broth dilution technique; type: functional, organism-based
# [27] = test system: Streptococcus pneumoniae; test: Antibacterial activity against Streptococcus pneumoniae MTCC 655 incubated overnight by broth dilution technique; type: functional, organism-based
# [28] = test system: Escherichia coli; test: Antibacterial activity against Escherichia coli ATCC 25922 incubated overnight by broth dilution technique; type: functional, organism-based
# [29] = test system: Pseudomonas aeruginosa; test: Antibacterial activity against Pseudomonas aeruginosa MTCC 2453 incubated overnight by broth dilution technique; type: functional, organism-based
# [30] = test system: Klebsiella pneumoniae; test: Antibacterial activity against Klebsiella pneumoniae ATCC 700603 incubated overnight by broth dilution technique; type: functional, organism-based
# [31] = test system: Salmonella enterica; test: Antibacterial activity against Salmonella enterica MTCC 3224 incubated overnight by broth dilution technique; type: functional, organism-based
# [32] = test system: Candida albicans; test: Antifungal activity against Candida albicans RCMB-05036 assessed as diameter of inhibition zone at 5 mg/ml by diffusion technique; type: functional; conditions: read-out: DIZ
# [33] = test system: Aspergillus fumigatus; test: Antifungal activity against Aspergillus fumigatus RCMB-02568 assessed as diameter of inhibition zone at 5 mg/ml by diffusion technique; type: functional; conditions: read-out: DIZ
# [34] = test system: Geotrichum candidum; test: Antifungal activity against Geotrichum candidum RCMB-05097 assessed as diameter of inhibition zone at 5 mg/ml by diffusion technique; type: functional; conditions: read-out: DIZ
# [35] = test system: Syncephalastrum racemosum; test: Antifungal activity against Syncephalastrum racemosum RCMB-05922 assessed as diameter of inhibition zone at 5 mg/ml by diffusion technique; type: functional; conditions: read-out: DIZ
# [36] = test system: Escherichia coli; test: Antibacterial activity against Escherichia coli NCIM-2576 incubated for 8 hrs; type: functional
# [37] = test system: Pseudomonas fluorescens; test: Antibacterial activity against Pseudomonas fluorescence NCIM-2059 incubated for 8 hrs; type: functional
# [38] = test system: Staphylococcus aureus; test: Antibacterial activity against Staphylococcus aureus NCIM-2602 incubated for 12 hrs; type: functional
# [39] = test system: Bacillus subtilis; test: Antibacterial activity against Bacillus subtilis NCIM-2162 incubated for 12 hrs; type: functional
# [40] = test system: Bacillus subtilis; test: Antibacterial activity against Bacillus subtilis assessed as inhibition zone at 1 mg/ml measured after overnight incubation by disc diffusion method; type: functional; conditions: read-out: IZ
# [41] = test system: Klebsiella pneumoniae; test: Antibacterial activity against Klebsiella pneumoniae MTCC 618 incubated for 24 hrs by microdilution method; type: functional
# [42] = test system: Pseudomonas aeruginosa; test: Antibacterial activity against Pseudomonas aeruginosa assessed as inhibition zone at 1 mg/ml measured after overnight incubation by disc diffusion method; type: functional; conditions: read-out: IZ
# [43] = test system: Escherichia coli; test: Antibacterial activity against Escherichia coli assessed as inhibition zone at 1 mg/ml measured after overnight incubation by disc diffusion method; type: functional; conditions: read-out: IZ
# [44] = test system: Staphylococcus aureus; test: Antibacterial activity against Staphylococcus aureus assessed as inhibition zone at 1 mg/ml measured after overnight incubation by disc diffusion method; type: functional; conditions: read-out: IZ
smiles,measurement,setting,value
OC(Cn1cncn1)(Cn1cncn1)c1ccc(F)cc1F [FLUCONAZOLE],MIC,[1],5.1 µM
same,MIC,[2],1 µg/mL
same,MIC,[3],5.1 µM
same,MIC,[4],8 µg/mL
same,MIC,[5],8 µg/mL
same,MIC,[6],0.0408 µM
same,MIC,[7],0.0716 µM
same,MIC,[8],4 µg/mL
C[C@H](c1ccccc1)N(CC(N)=O)C(=O)CN(C(=O)CN(Cc1cn(CCN)nn1)C(=O)CN(C(=O)CN(C(=O)CN(Cc1cn(CCN)nn1)C(=O)CN(C(=O)CN(C(=O)CN(Cc1cn(CCN)nn1)C(=O)CN(C(=O)CN(C(=O)CNCc1cn(CCN)nn1)[C@H](C)c1ccccc1)[C@H](C)c1ccccc1)[C@H](C)c1ccccc1)[C@H](C)c1ccccc1)[C@H](C)c1ccccc1)[C@H](C)c1ccccc1)[C@H](C)c1ccccc1,MIC,[9],> 1.6 µg/mL
same,MIC,[10],> 1.6 µg/mL
same,MIC,[11],> 1.6 µg/mL
same,MIC,[12],> 1.6 µg/mL
CO[C@@H]1[C@@H](O[C@@H]2O[C@H](C)[C@@H](O[C@H]3C[C@@](C)(O)[C@@H](OC(=O)CCCc4cn(C56CC7CC(CC(C7)C5)C6)nn4)[C@H](C)O3)[C@H](N(C)C)[C@H]2O)[C@H]2CC(O[Si](C)(C)C(C)(C)C)O[C@@H]1CC(=O)O[C@H](C)CC/C=C/C=C/[C@H](O[C@H]1CC[C@H](N(C)C)[C@@H](C)O1)[C@H](C)C2 (stereo not given in full),MIC,[13],8 µg/mL
same,MIC,[14],8 µg/mL
same,MIC,[15],8 µg/mL
C[C@H](c1ccccc1)N(CC(N)=O)C(=O)CN(C(=O)CN(Cc1cn(CCN)n[n+]1C)C(=O)CN(C(=O)CN(C(=O)CNCc1cn(CCN)n[n+]1C)[C@H](C)c1ccccc1)[C@H](C)c1ccccc1)[C@H](C)c1ccccc1,MIC,[9],> 1.6 µg/mL
same,MIC,[10],> 1.6 µg/mL
same,MIC,[11],> 1.6 µg/mL
same,MIC,[12],> 1.6 µg/mL
C[C@H](c1ccccc1)N(CC(N)=O)C(=O)CN(C(=O)CN(Cc1cn(Cc2ccccc2)n[n+]1C)C(=O)CN(C(=O)CN(C(=O)CN(Cc1cn(Cc2ccccc2)n[n+]1C)C(=O)CN(C(=O)CN(C(=O)CNCc1cn(Cc2ccccc2)n[n+]1C)[C@H](C)c1ccccc1)[C@H](C)c1ccccc1)[C@H](C)c1ccccc1)[C@H](C)c1ccccc1)[C@H](C)c1ccccc1,MIC,[9],> 1.6 µg/mL
same,MIC,[10],> 1.6 µg/mL
same,MIC,[11],> 1.6 µg/mL
same,MIC,[12],> 1.6 µg/mL
CO[C@@H]1[C@@H](O[C@@H]2O[C@H](C)[C@@H](O[C@H]3C[C@@](C)(O)[C@@H](OC(=O)CCCc4cn(CSc5ccccc5)nn4)[C@H](C)O3)[C@H](N(C)C)[C@H]2O)[C@H]2CC(O[Si](C)(C)C(C)(C)C)O[C@@H]1CC(=O)O[C@H](C)CC/C=C/C=C/[C@H](O[C@H]1CC[C@H](N(C)C)[C@@H](C)O1)[C@H](C)C2 (stereo not given in full),MIC,[13],8 µg/mL
same,MIC,[14],8 µg/mL
same,MIC,[15],8 µg/mL
O=C(N[C@H](CO)[C@H](O)c1ccc([N+](=O)[O-])cc1)C(Cl)Cl [CHLORAMPHENICOL],MIC,[16],2 µg/mL
same,MIC,[17],2 µg/mL
same,MIC,[18],1.56 µg/mL
same,MIC,[19],1.56 µg/mL
same,MIC,[20],2 µg/mL
same,MIC,[21],1.56 µg/mL
same,MIC,[22],2 µg/mL
same,MIC,[23],1.56 µg/mL
same,MIC,[24],2 µg/mL
same,MIC,[25],2 µg/mL
NS(=O)(=O)c1ccc(-n2cc(COc3cccc4cccnc34)nn2)cc1,IC50,[26],106 µg/mL
same,IC50,[27],106 µg/mL
same,IC50,[28],106 µg/mL
same,IC50,[29],106 µg/mL
same,IC50,[30],106 µg/mL
same,IC50,[31],106 µg/mL
C[C@@H]1[C@H](O)[C@@H](C)/C=C/C=C/C=C/C=C/C=C/C=C/C=C/[C@H](O[C@@H]2O[C@H](C)[C@@H](O)[C@H](N)[C@@H]2O)C[C@@H]2O[C@](O)(C[C@@H](O)C[C@@H](O)[C@H](O)CC[C@@H](O)C[C@@H](O)CC(=O)O[C@H]1C)C[C@H](O)[C@H]2C(=O)O [AMPHOTERICIN B],zone of inhibition at 5000 µg/mL,[32],19.7 mm
same,zone of inhibition at 5000 µg/mL,[33],19.7 mm
same,zone of inhibition at 5000 µg/mL,[34],19.7 mm
same,zone of inhibition at 5000 µg/mL,[35],19.7 mm
COc1ccc(-c2cnnn2Cc2csc(-c3ccc(Br)cc3)n2)cc1,MIC90,[36],4.5 µg/mL
same,MIC90,[37],4.5 µg/mL
same,MIC90,[38],4.5 µg/mL
same,MIC90,[39],4.5 µg/mL
C[C@H](c1ccccc1)N(CC(N)=O)C(=O)CN(C(=O)CN(Cc1cn(CCN)n[n+]1C)C(=O)CN(C(=O)CN(C(=O)CN(Cc1cn(CCN)n[n+]1C)C(=O)CN(C(=O)CN(C(=O)CNCc1cn(CCN)n[n+]1C)[C@H](C)c1ccccc1)[C@H](C)c1ccccc1)[C@H](C)c1ccccc1)[C@H](C)c1ccccc1)[C@H](C)c1ccccc1,MIC,[9],> 1.6 µg/mL
same,MIC,[10],> 1.6 µg/mL
same,MIC,[11],> 1.6 µg/mL
same,MIC,[12],> 1.6 µg/mL
CCn1cc(C(=O)O)c(=O)c2cc(F)c(N3CCNCC3)cc21 [NORFLOXACIN],zone of inhibition at 1000 µg/mL,[40],2.5 mm
same,MIC,[41],9.38 µg/mL
same,zone of inhibition at 1000 µg/mL,[42],2.5 mm
same,zone of inhibition at 1000 µg/mL,[43],2.5 mm
same,zone of inhibition at 1000 µg/mL,[44],2.5 mm
Clc1ccc(-n2cc(COc3cccc4cccnc34)nn2)cc1,IC50,[26],106 µg/mL
same,IC50,[27],106 µg/mL
same,IC50,[28],106 µg/mL
same,IC50,[29],106 µg/mL
same,IC50,[30],106 µg/mL
same,IC50,[31],106 µg/mL

# Source: ChEMBL document CHEMBL4699440, “Comprehensive review on the anti-bacterial activity of 1,2,3-triazole hybrids” (Eur J Med Chem, 2019)
